Patent US12662470B2, “Hydroxy and (halo)alkoxy substituted tetrahydrofurans as modulators of sodium channels” (VERTEX PHARMACEUTICALS INCORPORATED, priority 2021, dated 2026)

Biological target: human NaV 1.8 (Homo sapiens, UniProt Q9Y5Y9)
Test: E-VIPR Assay Detecting and Measuring NaV Inhibition Properties
Format: cell-based
Conditions: HEK cells expressing a truncated form of human NaV 1.8
Excerpt: Sodium ion channels are voltage-dependent proteins that can be activated by inducing membrane voltage changes by applying electric fields. The electrical stimulation instrument and methods of use, referred to as E-VIPR, are described in International Publication No. WO 2002/008748 A3 and C.-J. Huang et al. Characterization of voltage-gated sodium channel blockers by electrical stimulation and fluorescence detection of membrane potential, 24 Nature Biotech. 439-46 (2006), both of which are incorporated by reference in their entirety. The instrument comprises a microtiter plate handler, an optical system for exciting the coumarin dye while simultaneously recording the coumarin and oxonol emissions, a waveform generator, a current- or voltage-controlled amplifier, and parallel electrode pairs that are inserted into assay plate wells. Under integrated computer control, this instrument passes user-programmed electrical stimulus protocols to cells within the wells of the microtiter plate.
16-20 hours prior to running the assay on E-VIPR, HEK cells expressing a truncated form of human NaV 1.8 with full channel activity were seeded into microtiter 384-well plates, pre-coated with matrigel, at a density of 25,000 cells per well. 2.5-5% KIR2.1 Bacmam virus was added to the final cell suspension before seeding into cell plates. HEK cells were grown in Dulbecco's Modified Eagle's Medium (DMEM) supplemented with 10% FBS (Fetal Bovine Serum, qualified; Sigma #F4135), 1% NEAA (Non-Essential Amino Acids, Gibco #11140), 1% HEPES (Gibco #15630), 1% Pen-Strep (Penicillin-Streptomycin; Gibco #15140) and 5 μg/ml Blasticidin (Gibco #R210-01). Cells were expanded in vented cap cell culture flasks, with 90-95% humidity and 5% CO2.
Reagents and Stock Solutions:
• 100 mg/mL Pluronic F-127 (Sigma #P2443), in dry DMSO • Compound Plates: Corning 384-well Polypropylene Round Bottom #3656 • Cell Plates: 384-well tissue culture treated plates (Greiner #781091-2B)
2.5-5% KIR 2.1 Bacmam virus (produced in-house), prepared as described in Section 3.3 of J. A. Fornwald et al., Gene Expression in Mammalian Cells Using BacMam, a Modified Baculovirus System, 1350 Methods in Molecular Biology 95-116 (2016), the entire contents of which are incorporated by reference. The concentration used can be dependent on viral titer of each batch.
5 mM DiSBAC6(3), a voltage sensitive oxonol acceptor (CAS number 169211-44-3; 5-[3-(1,3-dihexylhexahydro-4,6-dioxo-2-thioxo-5-pyrimidinyl)-2-propen-1-ylidene]-1,3-dihexyldihydro-2-thioxo-4,6(1H,5H)-pyrimidinedione), in dry DMSO. The preparation of DiSBAC6(3) is analogous to that of DiSBAC4(3) as described in Voltage Sensing by Fluorescence Resonance Energy Transfer in Single Cells, Gonzalez, J. E. and Tsien, R. Y. (1995) Biophys. J. 69, 1272-1280.
5 mM CC2-DMPE, a commercially available membrane-bound coumarin phospholipid FRET donor (ThermoFisher Scientific catalog number K1017, CAS number 393782-57-5; tetradecanoic acid, 1,1′-[(1R)-1-[8-(6-chloro-7-hydroxy-2-oxo-2H-1-benzopyran-3-yl)-3-hydroxy-3-oxido-8-oxo-2,4-dioxa-7-aza-3-phosphaoct-1-yl]-1,2-ethanediyl] ester) was prepared in dry DMSO. See also, Improved indicators of cell membrane potential that use fluorescence resonance energy transfer, Gonzalez, J. E. and Tsien, R. Y. (1997) Chem. Biol. 4, 269-277.
Voltage Assay Background Suppression Compound (VABSC-1) is prepared in H2O (89-363 mM, range used to maintain solubility)
Human Serum (HS, Millipore #S1P1-01KL, or Sigma SLBR5469V and SLBR5470V as a 50%/50% mixture, for 25% assay final concentration)
• Sodium Chloride 160 mM (9.35 g/L), Potassium Chloride, 4.5 mM (0.335 g/L), Glucose 10 mM (1.8 g/L), Magnesium Chloride (Anhydrous) 1 mM (0.095 g/L), Calcium Chloride 2 mM (0.222 g/L), HEPES 10 mM (2.38 g/L) in water. […]

[1] = compound number with "*": assay performed in the presence of human serum
[2] = compound number without "*" (not marked as run in the presence of human serum)

human NaV 1.8, sequence (Q9Y5Y9 126-1722 limits assumed): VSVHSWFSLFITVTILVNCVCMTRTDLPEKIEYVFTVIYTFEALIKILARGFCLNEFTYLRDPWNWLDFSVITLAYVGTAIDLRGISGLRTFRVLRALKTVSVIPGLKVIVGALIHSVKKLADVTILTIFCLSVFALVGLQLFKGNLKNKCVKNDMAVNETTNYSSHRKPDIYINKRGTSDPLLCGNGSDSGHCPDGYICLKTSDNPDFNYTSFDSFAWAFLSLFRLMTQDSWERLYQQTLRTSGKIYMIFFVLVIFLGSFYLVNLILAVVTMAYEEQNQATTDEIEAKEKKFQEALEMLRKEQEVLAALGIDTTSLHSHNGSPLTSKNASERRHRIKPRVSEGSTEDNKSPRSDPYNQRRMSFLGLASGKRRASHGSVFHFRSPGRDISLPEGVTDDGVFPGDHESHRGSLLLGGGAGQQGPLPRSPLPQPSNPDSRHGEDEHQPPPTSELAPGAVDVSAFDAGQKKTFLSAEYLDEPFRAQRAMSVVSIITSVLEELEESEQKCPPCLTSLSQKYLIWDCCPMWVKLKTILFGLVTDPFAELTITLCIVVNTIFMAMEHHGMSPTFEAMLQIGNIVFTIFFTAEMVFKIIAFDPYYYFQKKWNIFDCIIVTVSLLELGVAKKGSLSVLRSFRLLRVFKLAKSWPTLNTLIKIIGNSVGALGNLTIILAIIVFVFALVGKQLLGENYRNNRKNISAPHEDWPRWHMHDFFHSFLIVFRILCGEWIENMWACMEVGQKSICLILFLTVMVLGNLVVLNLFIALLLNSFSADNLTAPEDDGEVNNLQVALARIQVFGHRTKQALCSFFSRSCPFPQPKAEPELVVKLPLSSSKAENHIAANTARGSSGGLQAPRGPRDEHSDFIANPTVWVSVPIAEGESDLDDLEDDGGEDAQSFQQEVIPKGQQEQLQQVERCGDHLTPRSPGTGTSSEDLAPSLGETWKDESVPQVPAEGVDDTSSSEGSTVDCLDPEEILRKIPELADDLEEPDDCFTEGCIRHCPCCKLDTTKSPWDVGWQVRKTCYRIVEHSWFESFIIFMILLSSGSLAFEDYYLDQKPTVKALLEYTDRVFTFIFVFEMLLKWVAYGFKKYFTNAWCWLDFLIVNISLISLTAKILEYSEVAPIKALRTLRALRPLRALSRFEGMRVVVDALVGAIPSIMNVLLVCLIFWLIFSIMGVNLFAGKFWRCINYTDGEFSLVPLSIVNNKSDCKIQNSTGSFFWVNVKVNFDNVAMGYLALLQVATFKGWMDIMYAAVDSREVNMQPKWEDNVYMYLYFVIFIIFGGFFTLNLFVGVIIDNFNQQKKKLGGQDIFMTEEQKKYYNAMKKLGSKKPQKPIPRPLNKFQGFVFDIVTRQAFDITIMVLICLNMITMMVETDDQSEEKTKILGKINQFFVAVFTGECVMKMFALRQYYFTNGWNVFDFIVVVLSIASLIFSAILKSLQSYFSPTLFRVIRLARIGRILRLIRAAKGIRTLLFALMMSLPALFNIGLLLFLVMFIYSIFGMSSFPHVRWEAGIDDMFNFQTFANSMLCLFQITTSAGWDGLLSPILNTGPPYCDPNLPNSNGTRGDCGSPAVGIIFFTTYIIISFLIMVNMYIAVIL

IC50 [1] [nM]	IC50 [2] [nM]	SMILES
–	< 10	COc1c([C@@H]2[C@H](OC)[C@H](C(C)C)O[C@H]2C(=O)Nc2ccnc(C(N)=O)c2)ccc(F)c1F [Compound 24, 4-((2R,3R,4S,5S)-3-(3,4-difluoro-2-methoxyphenyl)-5-isopropyl-4-methoxytetrahydrofuran-2-carboxamido)picolinamide]
–	10 to 100	COc1c([C@H]2[C@H](C(=O)Nc3ccnc(C(N)=O)c3)OC(C)(C)[C@H]2OC)ccc(F)c1F (stereo in doubt) [Compound 18, rel-4-((2R,3R,4S)-3-(3,4-difluoro-2-methoxyphenyl)-4-methoxy-5,5-dimethyltetrahydrofuran-2-carboxamido)picolinamide]
≥ 1000	–	COc1c([C@@H]2[C@H](OC)[C@H](C)O[C@H]2C(=O)Nc2ccnc([C@H](O)CO)c2)ccc(F)c1F (single isomer, unassigned) [Compound 10, rel-(2R*,3R*,4S*,5S*)-3-(3,4-difluoro-2-methoxyphenyl)-N-(2-(1,2-dihydroxyethyl)pyridin-4-yl)-4-methoxy-5-methyltetrahydrofuran-2-carboxamide]

More lines, now with the values behind:

SMILES	IC50 [1] [nM]	IC50 [2] [nM]
COc1c([C@H]2[C@H](C(=O)Nc3ccnc([C@@H](O)CO)c3)OC(C)(C)[C@H]2OC)ccc(F)c1F (single isomer, unassigned) [Compound 20]	100 to 1000	–
COc1c([C@H]2[C@H](C(=O)Nc3ccnnc3)O[C@@](C)(C(F)(F)F)[C@H]2O)ccc(F)c1F [Compound 3, (2R,3R,4S,5R)-3-(3,4-difluoro-2-methoxyphenyl)-4-hydroxy-5-methyl-N-(pyridazin-4-yl)-5-(trifluoromethyl)tetrahydrofuran-2-carboxamide]	–	≥ 1000
COc1c([C@@H]2[C@H](OC(C)C)[C@H](C)O[C@H]2C(=O)Nc2ccc(C(N)=O)nc2)ccc(F)c1F [Compound 15, 5-((2R,3R,4S,5S)-3-(3,4-difluoro-2-methoxyphenyl)-4-isopropoxy-5-methyltetrahydrofuran-2-carboxamido)picolinamide]	–	≥ 1000
COc1c([C@H]2[C@H](C(=O)Nc3ccnc(C(N)=O)c3)O[C@@](C)(C(F)(F)F)[C@H]2OC)ccc(F)c1C [Compound 5, 4-((2R,3R,4S,5R)-3-(4-fluoro-2-methoxy-3-methylphenyl)-4-methoxy-5-methyl-5-(trifluoromethyl)tetrahydrofuran-2-carboxamido)picolinamide]	–	< 10
COc1c([C@H]2[C@H](C(=O)Nc3ccnnc3)O[C@@](C)(C(F)(F)F)[C@H]2OC)ccc(F)c1C [Compound 4, (2R,3R,4S,5R)-3-(4-fluoro-2-methoxy-3-methylphenyl)-4-methoxy-5-methyl-N-(pyridazin-4-yl)-5-(trifluoromethyl)tetrahydrofuran-2-carboxamide]	–	< 10
COc1c([C@@H]2[C@H](OC(C)C)[C@H](C)O[C@H]2C(=O)Nc2ccnc(C(N)=O)c2)ccc(F)c1F [Compound 14, 4-((2R,3R,4S,5S)-3-(3,4-difluoro-2-methoxyphenyl)-4-isopropoxy-5-methyltetrahydrofuran-2-carboxamido)picolinamide]	–	100 to 1000
COc1c([C@H]2[C@H](C(=O)Nc3ccc([C@@H](O)CO)nc3)O[C@@](C)(C(F)(F)F)[C@H]2OC)ccc(F)c1C [Compound 6, (2R,3R,4S,5R)-N-(6-((R)-1,2-dihydroxyethyl)pyridin-3-yl)-3-(4-fluoro-2-methoxy-3-methylphenyl)-4-methoxy-5-methyl-5-(trifluoromethyl)tetrahydrofuran-2-carboxamide]	–	10 to 100
COc1c([C@@H]2[C@H](OC(C)C)[C@H](C)O[C@H]2C(=O)Nc2ccc([C@@H](O)CO)nc2)ccc(F)c1F [Compound 16, (2R,3R,4S,5S)-3-(3,4-difluoro-2-methoxyphenyl)-N-(6-((R)-1,2-dihydroxyethyl)pyridine-3-yl)-4-isopropoxy-5-methyltetrahydrofuran-2-carboxamide]	–	≥ 1000
